According to article PMC10046369, “Low-Affinity/High-Selectivity Dopamine Transport Inhibition Sufficient to Rescue Cognitive Functions in the Aging Rat” (Biomolecules, 2023):

Tests used:
Assay in all cases: biochemical
Parameters in all cases: KINOMEscan competition binding panel, per cent of control
Details in all cases: read-out: %Ctrl @ 2800nM
[1] = biological target: FES (Homo sapiens, UniProt P07332)
Method in brief: (§1)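 Values are expressed as percent of control, calculated as ((test − positive control)/(negative control − positive control)) × 100, so lower numbers mean stronger hits. Binding was measured by KINOMEscan competition assay in a 450-kinase human panel including disease mutants, using the contractor's validated protocol.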

[2] = biological target: EPHA5 (Homo sapiens, UniProt P54756)
Method in brief: as §1

[3] = biological target: TBK1 (Homo sapiens, UniProt Q9UHD2)
Method in brief: as §1

[4] = biological target: T1, TRKC (Homo sapiens, UniProt Q16288)
T1 construct: gene NTRK3
Method in brief: as §1

[5] = biological target: PAK4 (Homo sapiens, UniProt O96013)
Method in brief: as §1

[6] = biological target: SBK1 (Homo sapiens, UniProt Q52WX2)
Method in brief: as §1

[7] = biological target: MKNK1 (Homo sapiens, UniProt Q9BUB5)
Method in brief: as §1

[8] = biological target: T2, AMPK-alpha1 (Homo sapiens, UniProt Q13131)
T2 construct: gene PRKAA1
Method in brief: as §1

[9] = biological target: MYO3B (Homo sapiens, UniProt Q8WXR4)
Method in brief: as §1

[10] = biological target: INSRR (Homo sapiens, UniProt P14616)
Method in brief: as §1

[11] = biological target: T3, CDK11 (Homo sapiens, UniProt Q9BWU1)
T3 construct: gene CDK19
Method in brief: as §1

[12] = biological target: CSNK1G1 (Homo sapiens, UniProt Q9HCP0)
Method in brief: as §1

[13] = biological target: TGFBR2 (Homo sapiens, UniProt P37173)
Method in brief: as §1

[14] = biological target: RET(M918T) (Homo sapiens, UniProt P07949, M918T)
Method in brief: as §1

[15] = biological target: BMX (Homo sapiens, UniProt P51813)
Method in brief: as §1

[16] = biological target: PRKCI (Homo sapiens, UniProt P41743)
Method in brief: as §1

[17] = biological target: T4, TRKA (Homo sapiens, UniProt P04629)
T4 construct: gene NTRK1
Method in brief: as §1

[18] = biological target: TAOK3 (Homo sapiens, UniProt Q9H2K8)
Method in brief: as §1

[19] = biological target: AURKC (Homo sapiens, UniProt Q9UQB9)
Method in brief: as §1

[20] = biological target: GRK7 (Homo sapiens, UniProt Q8WTQ7)
Method in brief: as §1

[21] = biological target: MARK3 (Homo sapiens, UniProt P27448)
Method in brief: as §1

[22] = biological target: KIT(V559D) (Homo sapiens, UniProt P10721, V559D)
Method in brief: as §1

[23] = biological target: MAPKAPK2 (Homo sapiens, UniProt P49137)
Method in brief: as §1

[24] = biological target: FER (Homo sapiens, UniProt P16591)
Method in brief: as §1

[25] = biological target: MAP3K2 (Homo sapiens, UniProt Q9Y2U5)
Method in brief: as §1

[26] = biological target: T5, LKB1 (Homo sapiens, UniProt Q15831)
T5 construct: gene STK11
Method in brief: as §1

[27] = biological target: GRK2 (Homo sapiens, UniProt P25098)
Method in brief: as §1

Sequence of BMX (P51813 whole entry): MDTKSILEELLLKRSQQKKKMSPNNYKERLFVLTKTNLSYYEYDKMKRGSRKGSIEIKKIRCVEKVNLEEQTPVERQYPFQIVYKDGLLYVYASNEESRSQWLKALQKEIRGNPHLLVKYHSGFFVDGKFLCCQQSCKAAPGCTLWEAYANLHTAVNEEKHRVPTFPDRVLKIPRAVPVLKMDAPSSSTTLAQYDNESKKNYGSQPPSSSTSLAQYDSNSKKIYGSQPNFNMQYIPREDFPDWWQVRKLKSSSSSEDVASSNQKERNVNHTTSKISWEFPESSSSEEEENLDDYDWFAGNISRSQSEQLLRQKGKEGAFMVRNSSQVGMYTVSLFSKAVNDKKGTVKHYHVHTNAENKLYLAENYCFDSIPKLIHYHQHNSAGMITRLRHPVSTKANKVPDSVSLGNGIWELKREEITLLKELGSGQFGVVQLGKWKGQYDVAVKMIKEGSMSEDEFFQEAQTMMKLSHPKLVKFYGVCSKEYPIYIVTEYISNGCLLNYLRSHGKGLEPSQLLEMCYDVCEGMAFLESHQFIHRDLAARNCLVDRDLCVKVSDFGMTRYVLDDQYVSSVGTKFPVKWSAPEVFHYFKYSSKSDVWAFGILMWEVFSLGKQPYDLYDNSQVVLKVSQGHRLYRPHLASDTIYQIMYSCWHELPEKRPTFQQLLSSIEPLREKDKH
Sequence of PAK4 (O96013 whole entry): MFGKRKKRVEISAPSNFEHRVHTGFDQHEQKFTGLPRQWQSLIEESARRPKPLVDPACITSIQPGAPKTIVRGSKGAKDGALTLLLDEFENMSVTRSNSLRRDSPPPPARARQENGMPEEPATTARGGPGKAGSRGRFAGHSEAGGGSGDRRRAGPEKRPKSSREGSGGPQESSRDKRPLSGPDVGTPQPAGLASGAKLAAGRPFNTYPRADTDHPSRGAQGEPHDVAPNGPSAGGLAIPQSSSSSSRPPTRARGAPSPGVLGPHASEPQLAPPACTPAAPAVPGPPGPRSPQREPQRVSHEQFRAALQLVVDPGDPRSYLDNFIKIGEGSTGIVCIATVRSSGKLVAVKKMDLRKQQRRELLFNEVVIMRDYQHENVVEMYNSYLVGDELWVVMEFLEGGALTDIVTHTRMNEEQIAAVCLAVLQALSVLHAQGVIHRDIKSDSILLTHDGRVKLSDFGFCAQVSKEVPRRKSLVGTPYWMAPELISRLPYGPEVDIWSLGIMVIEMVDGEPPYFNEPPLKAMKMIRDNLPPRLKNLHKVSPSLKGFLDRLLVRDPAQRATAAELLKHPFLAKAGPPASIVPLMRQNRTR
Sequence of EPHA5 (P54756 whole entry): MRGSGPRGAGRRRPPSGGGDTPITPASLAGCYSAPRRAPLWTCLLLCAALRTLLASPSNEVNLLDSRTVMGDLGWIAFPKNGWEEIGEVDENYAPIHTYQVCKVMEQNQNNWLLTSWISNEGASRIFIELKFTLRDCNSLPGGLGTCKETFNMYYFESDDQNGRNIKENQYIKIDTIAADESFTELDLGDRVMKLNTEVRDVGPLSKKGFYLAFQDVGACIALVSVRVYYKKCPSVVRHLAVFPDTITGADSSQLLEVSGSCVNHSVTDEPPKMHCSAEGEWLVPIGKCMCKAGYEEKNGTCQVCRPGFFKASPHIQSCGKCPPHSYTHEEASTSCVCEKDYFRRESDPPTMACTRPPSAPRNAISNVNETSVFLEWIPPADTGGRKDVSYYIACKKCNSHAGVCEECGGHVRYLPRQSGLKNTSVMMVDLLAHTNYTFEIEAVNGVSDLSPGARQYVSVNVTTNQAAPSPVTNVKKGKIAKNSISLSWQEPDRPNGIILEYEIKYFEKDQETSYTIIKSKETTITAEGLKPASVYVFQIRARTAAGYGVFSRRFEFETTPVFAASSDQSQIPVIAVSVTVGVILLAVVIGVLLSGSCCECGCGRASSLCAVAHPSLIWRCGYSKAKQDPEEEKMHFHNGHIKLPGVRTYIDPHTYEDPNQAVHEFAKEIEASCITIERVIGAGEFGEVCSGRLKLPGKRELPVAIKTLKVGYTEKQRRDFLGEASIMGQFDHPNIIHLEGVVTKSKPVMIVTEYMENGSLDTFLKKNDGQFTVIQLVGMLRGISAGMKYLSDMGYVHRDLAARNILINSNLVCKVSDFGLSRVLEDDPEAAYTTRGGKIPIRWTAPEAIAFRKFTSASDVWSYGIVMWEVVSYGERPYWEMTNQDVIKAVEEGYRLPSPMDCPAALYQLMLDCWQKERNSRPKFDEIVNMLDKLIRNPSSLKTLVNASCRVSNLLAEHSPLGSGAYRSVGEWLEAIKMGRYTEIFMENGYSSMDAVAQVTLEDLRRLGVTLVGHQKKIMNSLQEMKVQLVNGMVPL
Sequence of TBK1 (Q9UHD2 whole entry): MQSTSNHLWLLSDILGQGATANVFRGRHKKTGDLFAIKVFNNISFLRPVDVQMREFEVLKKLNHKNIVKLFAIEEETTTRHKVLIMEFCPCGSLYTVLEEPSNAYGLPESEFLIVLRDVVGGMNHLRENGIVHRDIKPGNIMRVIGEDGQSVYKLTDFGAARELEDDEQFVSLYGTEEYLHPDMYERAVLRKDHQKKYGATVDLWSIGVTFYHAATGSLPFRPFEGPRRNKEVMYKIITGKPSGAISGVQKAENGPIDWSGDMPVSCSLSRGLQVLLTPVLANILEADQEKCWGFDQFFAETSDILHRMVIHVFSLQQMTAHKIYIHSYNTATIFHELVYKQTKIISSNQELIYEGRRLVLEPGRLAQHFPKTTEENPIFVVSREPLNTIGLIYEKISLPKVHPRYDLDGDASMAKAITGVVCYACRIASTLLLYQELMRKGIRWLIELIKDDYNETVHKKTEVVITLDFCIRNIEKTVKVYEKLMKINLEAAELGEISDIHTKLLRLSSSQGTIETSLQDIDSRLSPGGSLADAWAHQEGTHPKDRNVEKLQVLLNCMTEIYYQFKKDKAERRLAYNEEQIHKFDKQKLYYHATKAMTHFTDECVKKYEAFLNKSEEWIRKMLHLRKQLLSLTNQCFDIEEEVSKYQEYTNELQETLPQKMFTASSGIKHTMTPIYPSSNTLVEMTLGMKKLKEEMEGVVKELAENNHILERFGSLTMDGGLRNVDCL
Sequence of CSNK1G1 (Q9HCP0 whole entry): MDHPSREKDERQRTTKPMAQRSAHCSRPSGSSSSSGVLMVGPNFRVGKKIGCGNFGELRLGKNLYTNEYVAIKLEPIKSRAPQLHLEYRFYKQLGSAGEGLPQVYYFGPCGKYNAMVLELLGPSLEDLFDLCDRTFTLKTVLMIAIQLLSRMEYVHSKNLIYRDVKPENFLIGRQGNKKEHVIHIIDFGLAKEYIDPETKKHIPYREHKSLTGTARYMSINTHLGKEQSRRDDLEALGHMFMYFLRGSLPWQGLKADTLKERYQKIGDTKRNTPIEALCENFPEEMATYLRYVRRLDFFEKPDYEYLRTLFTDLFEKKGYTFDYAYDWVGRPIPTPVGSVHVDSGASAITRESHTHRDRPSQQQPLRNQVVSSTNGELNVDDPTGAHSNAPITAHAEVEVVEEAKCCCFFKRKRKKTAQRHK
Sequence of AURKC (Q9UQB9 whole entry): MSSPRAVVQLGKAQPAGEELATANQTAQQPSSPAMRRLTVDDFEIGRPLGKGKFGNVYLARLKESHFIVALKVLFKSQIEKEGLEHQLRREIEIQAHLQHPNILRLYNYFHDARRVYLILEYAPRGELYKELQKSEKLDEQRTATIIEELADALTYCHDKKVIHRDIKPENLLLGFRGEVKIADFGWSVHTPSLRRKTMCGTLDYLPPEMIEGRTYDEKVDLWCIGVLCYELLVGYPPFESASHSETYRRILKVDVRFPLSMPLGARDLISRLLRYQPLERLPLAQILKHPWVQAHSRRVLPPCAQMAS
Sequence of MARK3 (P27448 whole entry): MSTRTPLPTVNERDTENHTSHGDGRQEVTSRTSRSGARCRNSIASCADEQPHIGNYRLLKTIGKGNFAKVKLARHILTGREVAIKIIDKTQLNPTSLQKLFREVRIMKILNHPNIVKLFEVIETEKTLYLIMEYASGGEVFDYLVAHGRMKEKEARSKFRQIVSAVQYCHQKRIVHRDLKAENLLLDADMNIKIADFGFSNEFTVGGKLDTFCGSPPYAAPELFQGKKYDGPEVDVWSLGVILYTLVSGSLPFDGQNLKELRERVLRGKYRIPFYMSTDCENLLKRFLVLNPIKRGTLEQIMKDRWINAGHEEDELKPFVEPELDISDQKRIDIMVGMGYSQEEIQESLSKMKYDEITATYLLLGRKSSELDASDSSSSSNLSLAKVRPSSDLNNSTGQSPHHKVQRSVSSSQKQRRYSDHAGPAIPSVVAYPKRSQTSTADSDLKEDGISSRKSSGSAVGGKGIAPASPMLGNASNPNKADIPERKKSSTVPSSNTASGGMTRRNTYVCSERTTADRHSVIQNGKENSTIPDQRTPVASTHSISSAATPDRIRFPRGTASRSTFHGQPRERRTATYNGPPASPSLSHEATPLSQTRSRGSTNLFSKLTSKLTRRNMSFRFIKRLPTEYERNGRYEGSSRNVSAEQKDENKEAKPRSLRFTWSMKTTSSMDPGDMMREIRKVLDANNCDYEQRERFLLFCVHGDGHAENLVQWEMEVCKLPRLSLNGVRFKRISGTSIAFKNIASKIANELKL
T5 sequence (Q15831 whole entry): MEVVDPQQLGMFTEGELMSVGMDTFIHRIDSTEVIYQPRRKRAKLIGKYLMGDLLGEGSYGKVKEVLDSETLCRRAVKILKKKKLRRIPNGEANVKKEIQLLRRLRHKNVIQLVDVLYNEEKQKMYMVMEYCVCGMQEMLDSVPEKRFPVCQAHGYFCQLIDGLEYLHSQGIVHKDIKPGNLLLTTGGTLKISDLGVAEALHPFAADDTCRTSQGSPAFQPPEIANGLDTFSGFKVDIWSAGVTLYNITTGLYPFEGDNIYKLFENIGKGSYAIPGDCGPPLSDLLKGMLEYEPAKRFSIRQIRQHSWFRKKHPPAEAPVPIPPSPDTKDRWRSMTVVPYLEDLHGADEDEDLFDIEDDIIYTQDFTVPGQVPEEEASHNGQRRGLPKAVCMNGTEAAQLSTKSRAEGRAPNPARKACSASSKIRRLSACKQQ

[O-][S@@+](Cc1cncs1)C(c1ccccc1)c1ccccc1 [S-CE-123, (S)-5-((Benzhydrylsulfinyl)Methyl)Thiazole]
remaining binding at 2.8 µM [1]: 95%
remaining binding at 2.8 µM [2]: 86%
remaining binding at 2.8 µM [3]: 100%
remaining binding at 2.8 µM [4]: 100%
remaining binding at 2.8 µM [5]: 98%
remaining binding at 2.8 µM [6]: 100%
remaining binding at 2.8 µM [7]: 96%
remaining binding at 2.8 µM [8]: 92%
remaining binding at 2.8 µM [9]: 52%
remaining binding at 2.8 µM [10]: 94%
remaining binding at 2.8 µM [11]: 71%
remaining binding at 2.8 µM [12]: 96%
remaining binding at 2.8 µM [13]: 88%
remaining binding at 2.8 µM [14]: 89%
remaining binding at 2.8 µM [15]: 57%
remaining binding at 2.8 µM [16]: 100%
remaining binding at 2.8 µM [17]: 100%
remaining binding at 2.8 µM [18]: 91%
remaining binding at 2.8 µM [19]: 100%
remaining binding at 2.8 µM [20]: 90%
remaining binding at 2.8 µM [21]: 70%
remaining binding at 2.8 µM [22]: 97%
remaining binding at 2.8 µM [23]: 99%
remaining binding at 2.8 µM [24]: 100%
remaining binding at 2.8 µM [25]: 100%
remaining binding at 2.8 µM [26]: 100%
remaining binding at 2.8 µM [27]: 100%
